Data published in article PMC12549899 (Nature Communications, 2025).

Biological target: T1, mouse OTOP1 (mOTOP1) (Mus musculus, UniProt Q80VM9)
T1 construct: expressed in transfected cells; host or cells: HEK-293 (CRL-1573, ATCC)
T1 sequence (Q80VM9 1-600): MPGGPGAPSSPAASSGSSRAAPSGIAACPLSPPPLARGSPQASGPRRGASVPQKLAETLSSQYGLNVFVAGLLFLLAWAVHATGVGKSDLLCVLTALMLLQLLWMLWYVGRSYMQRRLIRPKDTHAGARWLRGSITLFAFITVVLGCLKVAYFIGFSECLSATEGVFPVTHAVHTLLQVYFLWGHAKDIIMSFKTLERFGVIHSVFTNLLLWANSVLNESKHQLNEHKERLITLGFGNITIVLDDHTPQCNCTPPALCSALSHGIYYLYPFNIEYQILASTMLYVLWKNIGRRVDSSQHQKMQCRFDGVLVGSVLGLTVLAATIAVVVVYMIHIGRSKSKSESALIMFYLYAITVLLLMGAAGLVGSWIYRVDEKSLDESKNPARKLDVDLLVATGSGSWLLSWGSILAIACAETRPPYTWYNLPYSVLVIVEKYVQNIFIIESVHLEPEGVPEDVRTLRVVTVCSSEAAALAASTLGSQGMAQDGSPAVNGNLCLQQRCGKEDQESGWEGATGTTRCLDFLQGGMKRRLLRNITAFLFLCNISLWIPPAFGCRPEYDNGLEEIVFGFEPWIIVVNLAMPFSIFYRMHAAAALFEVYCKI
Experiment: Whole-cell patch-clamp, inhibition of currents, mOTOP1 in HEK-293 cells
Format: cell-based
Details: HEK293, 100 µM (saturating concentration of C2.2)
Source text: The second series of compounds was again tested by whole-cell patch-clamp recording of DrOTOP1 expressed in HEK-293 cells. Of the 54 compounds tested, we identified 16 that inhibited DrOTOP1 acid-induced currents by over 25% (Fig. 2D and Supplementary Fig. 3E). […] The Hill coefficient of 1.52 indicated positive cooperativity and multiple binding sites, similar to C11. We next tested each of these compounds against mouse OTOP1 (mOTOP1) and human (Homo sapiens) OTOP1 (hOTOP1), which are among the closest related proteins in the mammalian proteome. […] For both compounds, we also determined whether there was any pH-dependence to their inhibitory effect by measuring dose-response curves over a range from pH 6.0, where sizable currents first appear, to pH 5.0. […]
Whole-cell patch-clamp recording was performed as previously described[6],[22],[25]. Recordings were made with an Axopatch 200B amplifier, digitized with a Digidata 1322a 16-bit data acquisition system, acquired with pClamp 8.2 and analyzed with Clampfit 10 (Molecular Devices). […]
All data are presented as mean ± SEM unless otherwise noted, and each data point represents an independent replicant. Inhibition of compounds was quantified as ((I2peak-I1)/(I2peak))*100, where I1 is the current immediately before wash-off and I2peak is the maximum recovered current (Supplementary Fig. 2). […]

C=C(C)COc1ccccc1NC(=O)c1nc[nH]c1C [C2.2]
inhibition at 100 µM: 1.92%
